The results in this text go back to patent publication US20030104030A1, “Stent for blood vessel and material for stent for blood vessel” (priority 2002, published 2003).

The series in a line: amount of tranilast in the stents, measured by high performance liquid chromatography. To be noted: impregnation in stent with supercritical CO2, 40 to 140° C. The class given is physicochemical. As for the experimental part: In the experimental example 2, a plural number of luminal stents, formed of plural biodegradable polymer material, in particular plural fibers of biodegradable polymer, in which the drug was impregnated as the pressure and the temperature of CO2 were varied, were formed, and measurements were made of the amount of the drug for each of these stents.
Of the stents, obtained in Examples 14 to 25, the amount of tranilast was measured using a high performance liquid chromatography.

For the compound `COc1ccc(C=CC(=O)Nc2ccccc2C(=O)O)cc1OC` [tranilast, N-(3,4-dimethoxycinnamoyl) anthranilic acid], the “thermal decomposition of drug during impregnation” value is recorded as “without undergoing thermal decomposition”.
